IC50 and MIC data for 13 compounds are collected here from ChEMBL document CHEMBL4152250, “Antibacterial and anti-TB tat-peptidomimetics with improved efficacy and half-life” (Eur J Med Chem, 2018).

Usually IC50 stands for the midpoint of a concentration-inhibition curve. By MIC is commonly meant the least concentration at which growth counts as inhibited. Read a low MIC as greater potency.

In experiment [1] the test system is Mycobacterium tuberculosis. Put plainly: Antitubercular activity against multidrug-resistant dormant stage of Mycobacterium tuberculosis H37Ra after 12 days by XRMA. As to conditions: 288 h. Format: functional, organism-based.
For experiment [2], the system named is Mycobacterium tuberculosis. Put plainly: Antitubercular activity against multidrug-resistant active stage of Mycobacterium tuberculosis H37Ra after 8 days by XRMA. Format: functional, organism-based. As to conditions: 192 h.

Converted amounts (≈) assume the structure as drawn. Numbered stars: 1 amine (or outer) side, 2 acyl side, 3 side chain; on linkers, the order of the positions; unused ones are H or OH. Square brackets hold non-standard residues; d marks the D form. Peptide text beside a SMILES is read from it. Pro(N-(CH2)3Gua,cis-4-NH-) = N=C(N)NCCCN1C[C@@H](N[*:1])C[C@H]1C(=O)[*:2]; Pro(cis-4-guanidino) = NC(N)=N[C@@H]1CN[C@H](C(=O)O)C1; X1 = NCCCN1C[C@@H](N[*:1])C[C@H]1C(=O)[*:2]; Ethylenediamine = C(CN[*:2])N[*:1]; βAla = NCCC(=O)O

On to `CC(=O)N[C@@H](Cc1ccccc1)C(=O)NCC(=O)N1C[C@@H](NC(=N)N)C[C@H]1C(=O)N[C@@H](CCCCN)C(=O)N[C@@H](CCCCN)C(=O)N[C@@H](CCCNC(=N)N)C(=O)N1C[C@@H](NC(=N)N)C[C@H]1C(=O)N[C@@H](CCC(N)=O)C(=O)N1C[C@@H](NC(=N)N)C[C@H]1C(=O)N[C@@H](CCCNC(=N)N)C(=O)N1C[C@@H](NC(=N)N)C[C@H]1C(=O)NCCC(N)=O` (Ac-FG[Pro(cis-4-guanidino)]KKR[Pro(cis-4-guanidino)]Q[Pro(cis-4-guanidino)]R[Pro(cis-4-guanidino)][βAla]-NH2), for which, in experiment [1], the IC50 turned out to be 1900 nM and the minimum inhibitory concentration (MIC) came out at 21.5 µM (≈ 35.4 µg/mL). In experiment [2], this compound came in with a half-maximal inhibitory concentration (IC50) of 10800 nM and an MIC of 26.4 µM (≈ 43.5 µg/mL).
As to `CC(=O)N[C@@H](Cc1ccccc1)C(=O)NCC(=O)N[C@H]1C[C@@H](C(=O)N[C@@H](CCCCN)C(=O)N[C@@H](CCCCN)C(=O)N[C@@H](CCCNC(=N)N)C(=O)N[C@H]2C[C@@H](C(=O)N[C@@H](CCC(N)=O)C(=O)N[C@@H](CCCNC(=N)N)C(=O)N[C@@H](CCCNC(=N)N)C(=O)N[C@H]3C[C@@H](C(=O)NCCC(N)=O)N(CCCNC(=N)N)C3)N(CCCNC(=N)N)C2)N(CCCNC(=N)N)C1` (Ac-FG[Pro(N-(CH2)3Gua,cis-4-NH-)]KKR[Pro(N-(CH2)3Gua,cis-4-NH-)]QRR[Pro(N-(CH2)3Gua,cis-4-NH-)][βAla]-NH2), in experiment [1], the IC50 came to 670 nM and it took 10.4 µM (≈ 18.9 µg/mL) to inhibit growth (MIC). In experiment [2], the IC50 turned out to be 6400 nM and the lowest concentration to inhibit growth (MIC) was 25.3 µM (≈ 46.1 µg/mL).
In the same order, the values of `CC(=O)N[C@@H](Cc1ccccc1)C(=O)NCC(=O)N[C@@H](CCCNC(=N)N)C(=O)N[C@@H](CCCCN)C(=O)N[C@@H](CCCCN)C(=O)N[C@@H](CCCNC(=N)N)C(=O)N[C@@H](CCCNC(=N)N)C(=O)N[C@@H](CCC(N)=O)C(=O)N[C@@H](CCCNC(=N)N)C(=O)N[C@@H](CCCNC(=N)N)C(=O)N[C@H]1C[C@@H](C(=O)NCCC(N)=O)N(CCCNC(=N)N)C1` (Ac-FGRKKRRQRR[Pro(N-(CH2)3Gua,cis-4-NH-)][βAla]-NH2) are 1280 nM, 12 µM (≈ 20.5 µg/mL), 1850 nM and 22.1 µM (≈ 37.8 µg/mL).
In the same order, the values of `CC(=O)N[C@@H](Cc1ccccc1)C(=O)NCC(=O)N[C@H]1C[C@@H](C(=O)N[C@@H](CCCCN)C(=O)N[C@@H](CCCCN)C(=O)N[C@@H](CCCNC(=N)N)C(=O)N[C@H]2C[C@@H](C(=O)N[C@@H](CCC(N)=O)C(=O)N[C@H]3C[C@@H](C(=O)N[C@@H](CCCNC(=N)N)C(=O)N[C@H]4C[C@@H](C(=O)NCCC(N)=O)N(CCCNC(=N)N)C4)N(CCCNC(=N)N)C3)N(CCCNC(=N)N)C2)N(CCCNC(=N)N)C1` are 2360 nM, 11.7 µM (≈ 22 µg/mL), 3100 nM and 24.6 µM (≈ 46.2 µg/mL).
In experiment [1], `CC(=O)N[C@@H](Cc1ccccc1)C(=O)NCC(=O)N[C@@H](CCCNC(=N)N)C(=O)N[C@@H](CCCCN)C(=O)N[C@@H](CCCCN)C(=O)N[C@@H](CCCNC(=N)N)C(=O)N[C@@H](CCCNC(=N)N)C(=O)N[C@@H](CCC(N)=O)C(=O)N[C@@H](CCCNC(=N)N)C(=O)N[C@@H](CCCNC(=N)N)C(=O)N1C[C@@H](NC(=N)N)C[C@H]1C(=O)NCCC(N)=O` (Ac-FGRKKRRQRR[Pro(cis-4-guanidino)][βAla]-NH2) gave a concentration for half-maximal inhibition (IC50) of 3100 nM and a minimal inhibitory concentration (MIC) of 12.9 µM (≈ 21.3 µg/mL). In experiment [2], this compound yielded an IC50 of 3100 nM and a minimum inhibitory concentration (MIC) of 22.5 µM (≈ 37.2 µg/mL).
For the compound `CC(=O)N[C@@H](Cc1ccccc1)C(=O)NCC(=O)N[C@@H](CCCNC(=N)N)C(=O)N[C@@H](CCCCN)C(=O)N[C@@H](CCCCN)C(=O)N[C@@H](CCCNC(=N)N)C(=O)N[C@@H](CCCNC(=N)N)C(=O)N[C@@H](CCC(N)=O)C(=O)N[C@@H](CCCNC(=N)N)C(=O)N[C@@H](CCCNC(=N)N)C(=O)N[C@@H](CCCNC(=N)N)C(N)=O`, the half-inhibitory concentration (IC50) is 19200 nM in experiment [1] and greater than 60000 nM in experiment [2].
On to `CC(=O)N[C@@H](Cc1ccccc1)C(=O)NCC(=O)N1C[C@@H](NC(=N)N)C[C@H]1C(=O)N[C@@H](CCCCN)C(=O)N[C@@H](CCCCN)C(=O)N[C@@H](CCCNC(=N)N)C(=O)N1C[C@@H](NC(=N)N)C[C@H]1C(=O)N[C@@H](CCC(N)=O)C(=O)N[C@@H](CCCNC(=N)N)C(=O)N[C@@H](CCCNC(=N)N)C(=O)N1C[C@@H](NC(=N)N)C[C@H]1C(=O)NCCC(N)=O` (Ac-FG[Pro(cis-4-guanidino)]KKR[Pro(cis-4-guanidino)]QRR[Pro(cis-4-guanidino)][βAla]-NH2), for which, in experiment [1], it took 500 nM to reach half-maximal inhibition (IC50) and the minimum inhibitory concentration (MIC) worked out at 6 µM (≈ 9.9 µg/mL). In experiment [2], this compound had an IC50 of 1320 nM and an MIC of 15 µM (≈ 24.7 µg/mL).
In experiment [1], `CC(=O)N[C@@H](Cc1ccccc1)C(=O)NCC(=O)N[C@@H](CCCNC(=N)N)C(=O)N[C@@H](CCCCN)C(=O)N[C@@H](CCCCN)C(=O)N[C@H]1C[C@@H](C(=O)N[C@@H](CCCNC(=N)N)C(=O)N[C@@H](CCC(N)=O)C(=O)N[C@@H](CCCNC(=N)N)C(=O)N[C@@H](CCCNC(=N)N)C(=O)N[C@@H](CCCNC(=N)N)C(=O)NCCC(N)=O)N(CCCNC(=N)N)C1` (Ac-FGRKK[Pro(N-(CH2)3Gua,cis-4-NH-)]RQRRR[βAla]-NH2) yielded an IC50 of 1100 nM and a minimum inhibitory concentration (MIC) of 10.6 µM (≈ 18.1 µg/mL). In experiment [2], this compound came in with a 50% inhibitory concentration (IC50) of 2000 nM and a minimal inhibitory concentration (MIC) of 13 µM (≈ 22.2 µg/mL).
Regarding `CC(=O)N[C@@H](Cc1ccccc1)C(=O)NCC(=O)N[C@H]1C[C@@H](C(=O)N[C@@H](CCCCN)C(=O)N[C@@H](CCCCN)C(=O)N[C@@H](CCCNC(=N)N)C(=O)N[C@H]2C[C@@H](C(=O)N[C@@H](CCC(N)=O)C(=O)N[C@@H](CCCNC(=N)N)C(=O)N[C@@H](CCCNC(=N)N)C(=O)N[C@H]3C[C@@H](C(=O)NCCC(N)=O)N(CCCN)C3)N(CCCN)C2)N(CCCN)C1` (Ac-FG[X1]KKR[X1]QRR[X1][βAla]-NH2), in experiment [1], the half-inhibitory concentration (IC50) was 1460 nM and the minimum inhibitory concentration (MIC) stood at 14 µM (≈ 23.7 µg/mL). In experiment [2], this compound registered a concentration for half-maximal inhibition (IC50) of 2600 nM and an MIC of 23.5 µM (≈ 39.8 µg/mL).
In the same order, the values of `CC(=O)N[C@@H](Cc1ccccc1)C(=O)NCC(=O)N[C@H]1C[C@@H](C(=O)N[C@@H](CCCCN)C(=O)N[C@@H](CCCCN)C(=O)N[C@@H](CCCNC(=N)N)C(=O)N[C@H]2C[C@@H](C(=O)N[C@@H](CCC(N)=O)C(=O)N[C@H]3C[C@@H](C(=O)N[C@@H](CCCNC(=N)N)C(=O)N[C@H]4C[C@@H](C(=O)NCCN)N(CCCN)C4)N(CCCN)C3)N(CCCN)C2)N(CCCN)C1` (Ac-FG[X1]KKR[X1]Q[X1]R[X1]-Ethylenediamine) are 1080 nM, 6.6 µM (≈ 11.1 µg/mL), 2800 nM and 12 µM (≈ 20.2 µg/mL).
With `CC(=O)N[C@@H](Cc1ccccc1)C(=O)NCC(=O)N[C@@H](CCCNC(=N)N)C(=O)N[C@@H](CCCCN)C(=O)N[C@@H](CCCCN)C(=O)N1C[C@@H](NC(=N)N)C[C@H]1C(=O)N[C@@H](CCCNC(=N)N)C(=O)N[C@@H](CCC(N)=O)C(=O)N[C@@H](CCCNC(=N)N)C(=O)N[C@@H](CCCNC(=N)N)C(=O)N[C@@H](CCCNC(=N)N)C(=O)NCCC(N)=O` (Ac-FGRKK[Pro(cis-4-guanidino)]RQRRR[βAla]-NH2), the IC50 in experiment [1] was determined as 3270 nM; in experiment [2] it was 2680 nM. The values for the MIC in experiment [1] and in experiment [2] were 14.5 µM (≈ 24 µg/mL) and 15.1 µM (≈ 25 µg/mL), respectively.
`NC(=O)c1cnccn1` [PYRAZINAMIDE]: the MIC in experiment [1] and in experiment [2] was greater than 100 µM in each case.
`CO[C@H]1/C=C/O[C@@]2(C)Oc3c(C)c(O)c4c(O)c(c(/C=N/N5CCN(C)CC5)c(O)c4c3C2=O)NC(=O)/C(C)=C\C=C\[C@H](C)[C@H](O)[C@@H](C)[C@@H](O)[C@@H](C)[C@H](OC(C)=O)[C@@H]1C` [RIFAMPIN]: the MIC in experiment [1] and in experiment [2] was greater than 12.1 µM each time.
